Source: the supplement of paper PMC13380429

Columns and labels:
Conditions in all cases: 72 h
Caco-2 [1] = test: cell viability relative to DMSO; higher = less toxic
Calu-3 [2] = test: as above
HepG2 [3] = test: as above
U2OS [4] = test: as above
Vero E6 [5] = test: as above
Caco-2 [6] = test: relative viability EC50 (midpoint between 100% and the lowest measured viability); higher = less toxic
Calu-3 [7] = test: as above
HepG2 [8] = test: as above
U2OS [9] = test: as above
Vero E6 [10] = test: as above
Caco-2 [11] = test: drug sensitivity score (DSS) for viability; higher = more toxic; extreme values may be limits of the assay
Calu-3 [12] = test: as above
HepG2 [13] = test: as above
U2OS [14] = test: as above
Vero E6 [15] = test: as above

Compound	cell viability (Caco-2 [1]; 1 nM) [%]	cell viability (Caco-2 [1]; 10 nM) [%]	cell viability (Caco-2 [1]; 100 nM) [%]	cell viability (Caco-2 [1]; 1000 nM) [%]	cell viability (Caco-2 [1]; 10000 nM) [%]	cell viability (Calu-3 [2]; 1 nM) [%]	cell viability (Calu-3 [2]; 10 nM) [%]	cell viability (Calu-3 [2]; 100 nM) [%]	cell viability (Calu-3 [2]; 1000 nM) [%]	cell viability (Calu-3 [2]; 10000 nM) [%]	cell viability (HepG2 [3]; 1 nM) [%]	cell viability (HepG2 [3]; 10 nM) [%]	cell viability (HepG2 [3]; 100 nM) [%]	cell viability (HepG2 [3]; 1000 nM) [%]	cell viability (HepG2 [3]; 10000 nM) [%]	cell viability (U2OS [4]; 1 nM) [%]	cell viability (U2OS [4]; 10 nM) [%]	cell viability (U2OS [4]; 100 nM) [%]	cell viability (U2OS [4]; 1000 nM) [%]	cell viability (U2OS [4]; 10000 nM) [%]	cell viability (Vero E6 [5]; 1 nM) [%]	cell viability (Vero E6 [5]; 10 nM) [%]	cell viability (Vero E6 [5]; 100 nM) [%]	cell viability (Vero E6 [5]; 1000 nM) [%]	cell viability (Vero E6 [5]; 10000 nM) [%]	relative viability EC50 (Caco-2 [6]) [µM]	relative viability EC50 (Calu-3 [7]) [µM]	relative viability EC50 (HepG2 [8]) [µM]	relative viability EC50 (U2OS [9]) [µM]	relative viability EC50 (Vero E6 [10]) [µM]	drug sensitivity score (Caco-2 [11])	drug sensitivity score (Calu-3 [12])	drug sensitivity score (HepG2 [13])	drug sensitivity score (U2OS [14])	drug sensitivity score (Vero E6 [15])
OC[C@@H](O)[C@@H](O)[C@@H](O)CO [ribitol]	100	97	104	102	103	102	93	98.1	96.6	98	101	90.9	111	100	105	98.9	96.2	97.4	93	102	93.7	100	97.8	99.2	101	> 10	> 10	> 10	> 10	> 10	0	0	0	0	0
CO[C@H]1/C=C/O[C@@]2(C)Oc3c(C)c(O)c4c(O)c(c(/C=N/N5CCN(C6CCCC6)CC5)c(O)c4c3C2=O)NC(=O)/C(C)=C\C=C\[C@H](C)[C@H](O)[C@@H](C)[C@@H](O)[C@@H](C)[C@H](OC(C)=O)[C@@H]1C [rifapentine]	95.2	94.9	94.4	102	77.6	101	104	94.4	111	88.2	96.4	92.9	94	97.7	89.3	96.3	103	95.3	100	85.7	96.2	93.7	97	89.1	97.7	> 10	> 10	> 10	> 10	> 10	0.7	0	0	0.2	0
N[C@@H]1c2cccnc2[C@H](OC(=O)N2CCC(n3c(=O)[nH]c4ncccc43)CC2)CC[C@H]1c1cccc(F)c1F [rimegepant]	99.3	94.5	98.1	91.2	102	90.7	95.3	98.4	92.9	97.6	92.4	98.6	98.8	106	104	102	96.1	101	97.2	100	97	96.8	91.6	99.7	112	> 10	> 10	> 10	> 10	> 10	0	0	0	0	0
C[C@H]1CNCCCN1S(=O)(=O)c1cccc2cncc(F)c12 [ripasudil]	92	90.4	87.5	99.2	101	88.6	98.1	102	138	143	111	101	101	92.1	88	98.4	100	99.4	99.8	92.9	109	103	105	91.6	88.7	> 10	> 10	> 10	> 10	> 10	0	0	0.3	0	0.2
O=P(O)(O)C(O)(Cc1cccnc1)P(=O)(O)O [risedronate]	95.6	103	94.1	97.8	94.7	97.9	98.7	103	99.2	104	83.2	97.1	95.5	93.2	101	102	96.1	98	96.2	96	93.1	98.7	93	94.8	104	> 10	> 10	> 10	> 10	> 10	0	0	0	0	0
CCCN1CCCC[C@H]1C(=O)Nc1c(C)cccc1C [ropivacaine]	90.8	101	92.6	102	95.3	107	106	90.7	103	97.5	96.5	96.7	89.2	95.6	99.4	96.6	97.9	92.2	99	97.4	103	103	98.3	98.7	98.1	> 10	> 10	> 10	> 10	> 10	0	0	0	0	0
O=C(/C=C/c1ccc(O)c(O)c1)O[C@H](Cc1ccc(O)c(O)c1)C(=O)O [rosmarinic-acid]	91.5	102	87.7	99.1	88	105	109	101	88.5	94.5	98.8	111	106	96.7	102	101	103	94.8	104	98.6	102	103	99.1	96.4	99.6	> 10	> 10	> 10	> 10	> 10	0	0.4	0	0	0
